{"source": "paper PMC9145196", "about": "“The Antileukemic and Anti-Prostatic Effect of Aeroplysinin-1 Is Mediated through ROS-Induced Apoptosis via NOX Activation and Inhibition of HIF-1a Activity” (Life, 2022)", "key": {"Hsp90": {"target": "T1, Hsp90 (Homo sapiens, UniProt P07900)", "T1 construct": "gene HSP90AA1; HSP90 recombinant protein", "experiment": "protein thermal shift assay (Sypro Orange), Tm increase at […] Apl-1", "type": "binding"}, "topo IIα": {"target": "T2, topo IIα (Homo sapiens, UniProt P11388)", "T2 construct": "gene TOP2A", "T2 sequence (P11388 whole entry)": "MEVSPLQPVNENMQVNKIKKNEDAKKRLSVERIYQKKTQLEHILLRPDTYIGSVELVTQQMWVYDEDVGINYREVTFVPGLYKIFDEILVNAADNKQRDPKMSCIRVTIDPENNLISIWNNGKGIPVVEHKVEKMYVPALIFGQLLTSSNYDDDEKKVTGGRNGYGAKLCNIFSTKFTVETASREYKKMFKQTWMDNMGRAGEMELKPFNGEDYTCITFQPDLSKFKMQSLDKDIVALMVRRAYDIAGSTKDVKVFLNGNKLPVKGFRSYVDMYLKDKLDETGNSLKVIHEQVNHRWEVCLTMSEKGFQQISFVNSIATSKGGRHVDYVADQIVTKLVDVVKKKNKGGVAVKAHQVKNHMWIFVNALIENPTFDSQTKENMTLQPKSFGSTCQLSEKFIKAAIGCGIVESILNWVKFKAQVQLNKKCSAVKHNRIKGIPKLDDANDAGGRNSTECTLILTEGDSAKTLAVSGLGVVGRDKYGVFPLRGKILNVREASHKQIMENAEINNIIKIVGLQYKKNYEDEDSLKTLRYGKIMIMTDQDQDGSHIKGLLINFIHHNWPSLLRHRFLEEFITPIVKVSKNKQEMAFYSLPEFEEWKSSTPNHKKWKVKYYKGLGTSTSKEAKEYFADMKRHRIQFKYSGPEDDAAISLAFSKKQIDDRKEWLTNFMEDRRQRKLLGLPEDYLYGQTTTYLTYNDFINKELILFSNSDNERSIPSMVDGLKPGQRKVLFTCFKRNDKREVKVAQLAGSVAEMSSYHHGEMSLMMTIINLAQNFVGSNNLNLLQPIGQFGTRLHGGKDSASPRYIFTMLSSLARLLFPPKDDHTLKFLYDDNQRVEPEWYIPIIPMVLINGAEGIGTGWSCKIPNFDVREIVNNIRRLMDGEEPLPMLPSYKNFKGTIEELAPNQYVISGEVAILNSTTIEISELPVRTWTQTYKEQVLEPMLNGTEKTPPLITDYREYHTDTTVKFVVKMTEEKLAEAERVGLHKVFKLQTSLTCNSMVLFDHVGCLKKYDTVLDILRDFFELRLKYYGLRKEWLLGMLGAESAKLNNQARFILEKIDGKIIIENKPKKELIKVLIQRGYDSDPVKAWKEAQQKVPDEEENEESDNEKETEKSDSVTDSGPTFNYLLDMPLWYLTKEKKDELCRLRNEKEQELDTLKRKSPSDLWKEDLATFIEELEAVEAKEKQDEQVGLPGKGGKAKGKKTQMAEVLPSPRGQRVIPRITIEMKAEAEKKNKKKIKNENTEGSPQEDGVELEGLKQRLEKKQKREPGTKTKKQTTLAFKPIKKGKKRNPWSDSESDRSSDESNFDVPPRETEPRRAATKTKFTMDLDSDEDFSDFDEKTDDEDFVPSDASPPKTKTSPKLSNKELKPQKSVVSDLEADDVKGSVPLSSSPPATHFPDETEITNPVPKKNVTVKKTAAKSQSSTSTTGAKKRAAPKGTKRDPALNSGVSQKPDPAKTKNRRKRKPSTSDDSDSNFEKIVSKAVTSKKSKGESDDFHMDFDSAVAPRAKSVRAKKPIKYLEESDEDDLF", "experiment": "cell-free topo II relaxation assay of supercoiled pHOT1 plasmid DNA", "type": "biochemical"}}, "data": [{"smiles": "COC1=C(Br)[C@H](O)[C@](O)(CC#N)C=C1Br", "note": "[Apl-1, aeroplysinin-1]", "values": [{"measurement": "ΔTm at 2950 µM", "setting": "Hsp90", "result": "46.4 ± 7.4", "unit": "°C"}, {"measurement": "IC50", "setting": "topo IIα", "result": 1370, "unit": "nM"}]}]}
